From patent US6395730B1, “Potassium channel inhibitors” (Icagen, Inc., priority 1998, dated 2002)

Experiments:
[1] = target: T1, human Kv1.5 (Homo sapiens, UniProt P22460); test: 86Rb efflux assay; type: cell-based; conditions: inhibition of 86Rb efflux through Kv1.5 potassium channels expressed in CHO cells; 70 mM KCl depolarization; read-out: IC50 (μM) (flux)
T1 construct: expressed in transfected cells
Method: Cells stably transfected with cDNA for human Kv1.5 (in pcDNA3 vector) were grown as confluent monolayers in 96 well tissue culture plates in MEM alpha with 10% heat inactivated fetal bovine serum and 400 μg/ml G418. Cells were incubated overnight in growth media containing 1 μCi/ml ^86Rb to permit intracellular uptake of the isotope. At the end of the incubation period, the ^86Rb solution is aspirated and the cells washed three times with Earls Balanced Salt Solution (EBSS) which contains (in mM) 132 NaCl, 5.4 KCl, 1.8 CaCl2, 0.8 mM MgCl2 10 mM HEPES and 5 mM glucose. The cells were then preincubated for 10 minutes at room temperature in 100 μl/well of EBSS or EBSS containing test compounds. At the end of this period the wells were aspirated and to each well is then added 100 μl of a modified EBSS solution containing 70 mM KCl (NaCl replaced by KCl) and the compound to be tested. The high KCl concentration is utilized to depolarize the cells to membrane potentials that will activate Kv1.5 channels. After a 1 minute incubation in 70 mM KCl EBSS plus test compound, the solution is removed and placed into the appropriate well of a 96 well counting plate for analysis. Finally 100 μl of 0.1% sodium dodecyl sulfate in EBSS is added to each well to lyse the cells. The lysate is taken for analysis to determine final cell content of ^86Rb. Samples were counted in a Wallac Microbeta liquid scintillation counter by Cerenkov emission. Efflux is expressed as a percentage of the initial cell content of ^86Rb.
The testing results of selective compounds from Tables 1 and 2 using this assay are reported in Table 3 (flux) as the potency for inhibition of ^86Rb efflux through Kv1.5 potassium channels expressed in CHO cells by compounds of the invention.

[2] = target: Kv1.5 potassium channel subunit (Homo sapiens, UniProt P22460); test: Electrophysiological studies (whole cell patch clamp); type: cell-based; conditions: inhibition of Kv1.5 potassium currents, Chinese hamster ovary cells stably expressing Kv1.5
Kv1.5 potassium channel subunit, sequence (P22460 whole entry): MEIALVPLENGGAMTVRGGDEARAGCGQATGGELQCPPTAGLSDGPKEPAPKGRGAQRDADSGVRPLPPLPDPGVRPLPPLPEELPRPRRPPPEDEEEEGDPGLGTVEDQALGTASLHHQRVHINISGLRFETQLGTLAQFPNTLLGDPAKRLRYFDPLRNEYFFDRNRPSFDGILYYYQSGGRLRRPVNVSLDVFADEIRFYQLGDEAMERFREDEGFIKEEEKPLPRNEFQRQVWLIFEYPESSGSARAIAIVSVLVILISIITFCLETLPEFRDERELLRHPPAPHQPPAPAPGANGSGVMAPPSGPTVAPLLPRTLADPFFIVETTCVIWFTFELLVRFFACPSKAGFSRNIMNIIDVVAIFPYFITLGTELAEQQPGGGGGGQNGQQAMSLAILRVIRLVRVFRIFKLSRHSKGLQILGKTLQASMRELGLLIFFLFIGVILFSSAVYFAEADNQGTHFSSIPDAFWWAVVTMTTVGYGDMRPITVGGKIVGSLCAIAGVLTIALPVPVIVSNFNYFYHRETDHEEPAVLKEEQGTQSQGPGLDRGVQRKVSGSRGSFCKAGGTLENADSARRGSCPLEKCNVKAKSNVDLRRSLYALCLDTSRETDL
Method: Electrophysiological recordings of potassium currents in Chinese hamster ovary cells stably expressing the gene construct for the Kv1.5 potassium channel subunit were performed using the whole cell configuration of the patch clamp technique (Hamill et al., Pflugers Archiv 391:85, 1981). Cell lines expressing Kv1.5 were prepared using standard techniques known to those skilled in the art. Cells were plated on glass coverslips at a density of 2×10^4 cells/coverslip and used within 24-48 hours. Solutions used for electrophysiological recordings were as follows. Extracellular bathing solutions contained (in mM) 132 NaCl, 5.4 KCl, 1.8 CaCl2, 0.8 MgCl2, 10 HEPES, 5 glucose at pH 7.3. Electrode pipette solutions for measuring Kv1.5 contain (in mM) 100 KF, 40 KCl, 5 NaCl, 2 MgCl2, 5 mM EGTA, 10 mM HEPES and 5 glucose at pH 7.4, 295 mOsm. The coverslips were placed in a small chamber (volume ˜200 μl) on the mechanical stage of an inverted microscope and […] (2 ml/min) with extracellular recording solution. Drug application is achieved via a series of narrow-bore glass capillary tubes (inner diameter ˜100 μm) positioned approximately 200 μm from the cell.
The testing results of selective compounds from Tables 1 and 2 using this assay are reported in Table 3 (EP) as the potency for inhibition of Kv1.5 potassium currents by compounds of the invention.

T1 sequence (P22460 whole entry): as above

Row | Structure (SMILES) | IC50 [1] [µM] | IC50 [2] [µM]
1 | COc1ccc(CCN2C(=O)CSC2c2cccc(OC)c2)cc1 (centres unmarked) [1 of Table 1] | 3.9 | 0.6
2 | COc1ccc(CCN2C(=O)CSC2c2ccc(OC)c(OC)c2)cc1 (centres unmarked) [5 of Table 1] | 29.6 | 6
3 | COc1ccc(CCN2C(=O)CSC2c2ccc(F)c(F)c2)cc1 (centres unmarked) [23 of Table 1] | 14.5 | –
4 | COc1ccc(CN2C(=O)CSC2c2cccc(OC)c2)cc1 (centres unmarked) [36 of Table 1] | 30 | 4.7
5 | Cc1ccc(C2SCC(=O)N2CCCCc2ccccc2)cc1C (centres unmarked) [60 of Table 1] | 6.9 | 0.3
6 | CCc1ccc(C2SCC(=O)N2CCc2ccc(OC)cc2)s1 (centres unmarked) [67 of Table 1] | 1.3 | 0.7
7 | CCCCCCN1C(=O)CSC1c1cccc(OC)c1 (centres unmarked) [77 of Table 1] | 10.5 | 1.6
8 | Cc1ccc(C2SCC(=O)N2CC#Cc2ccccc2)cc1C (centres unmarked) [82 of Table 1] | 4.7 | –

Further lines, results first:

Row | IC50 [1] [µM] | IC50 [2] [µM] | Structure (SMILES)
9 | 1.5 | 0.3 | COc1ccc(CCN2C(=O)CCSC2c2ccc(C)c(C)c2)cc1 (centres unmarked) [2 of Table 2]
10 | 9.9 | 1.2 | COc1cccc(CCN2C(=O)CSC2c2ccc3c(c2)OCO3)c1 (centres unmarked) [8 of Table 1]
11 | 1.5 | 1 | COc1ccc(CCN2C(=O)CCSC2c2ccc3c(c2)OCO3)cc1 (centres unmarked) [18 of Table 2]
12 | – | 0.6 | COc1ccc(CCN2C(=O)C(C)SC2c2ccc3c(c2)OCCO3)cc1 (centres unmarked) [45 of Table 1]
13 | 0.9 | 0.2 | COc1ccc(CCN2C(=O)CSC2c2ccc(C)c(C)c2)cc1 (centres unmarked) [52 of Table 1]
